For three molecules, Normal melting temperature and molar enthalpy results are on record in the NIST ThermoML archive (doi:10.1016/j.jct.2008.04.004).

The conditions of data set [1]: Crystal.
A short description of data set [2]: molar enthalpy of vaporization or sublimation. Conditions: 298.15 K, Crystal.
Setting [3] is: stuart scientific smp2 calibrated apparatus.

Each structure is given as a SMILES string. ± gives the expanded uncertainty stated by the source.

`N#Cc1ccc(C(=O)O)cc1` [4-cyanobenzoic acid]: the Normal melting temperature in data set [1] (setting [3]) is 220 ± 1 °C. In data set [2] (Unpublished results by the authors), the molar enthalpy turned out to be 27 ± 0.478 kcal/mol.
In the case of `N#Cc1cccc(C(=O)O)c1` [3-cyanobenzoic acid], the Normal melting temperature in data set [1] (setting [3]) turned out to be 223 ± 1 °C. In data set [2] (Vacuum drop calorimetry), the molar enthalpy was determined as 27.9 ± 0.717 kcal/mol.
Turning to `N#Cc1ccccc1C(=O)O` [2-cyanobenzoic acid], in data set [1] (DTA), the Normal melting temperature stood at 232.6 ± 0.5 °C. Besides, the molar enthalpy in data set [2] (Vacuum drop calorimetry) came to 27.4 ± 0.717 kcal/mol.
